One data set has as its system WT1- autologous APC. Put plainly: Cr51 release assay, cytotoxic CTL response vs unmodified autologous APC. Format: cell-based, human. As to conditions: 50:1 E:T.
Data set [1] has as its system WT1 peptide loaded autologous APC. Description: Cr51 release assay, cytotoxic CTL response vs peptide loaded autologous APC. As to conditions: 50:1 E:T. It counts as cell-based, human.
The next data set deals with WT1- leukemia. Description: Cr51 release assay, cytotoxic CTL response vs WT1- leukemia. It counts as cell-based, human. As to conditions: 50:1 E:T. The text has this: (§1) Twenty-four primary leukemic cells and 1 leukemic cell line were characterized for their expression of WT1 by intracellular FACS staining using murine anti-human WT1 monoclonal antibodies (Neomarkers, Fremont, Calif.) as previously described (32,38) The WT1+ leukemias included blast cells from 11 primary AMLs, 3 primary ALLs and 1B-cell precursor ALL cell line. Ten WT1-leukemias, were used as controls, and included 3 B-cell precursor ALLs and 7 AMLs.

The next data set has as its system WT1+ leukemia. Description: Cr51 release assay, cytotoxic CTL response vs WT1+ leukemia expressing restricting HLA allele. It counts as cell-based, human. The settings on record: 50:1 E:T.
Description: as §1
PHA blasts were not available from every patient that provided leukemia blasts for this study.

Data set [2] deals with WT1- allo APC with restricting HLA allele. Description: Cr51 release assay, cytotoxic CTL response vs unloaded allogeneic APC sharing restricting HLA allele. Format: cell-based, human. As to conditions: 50:1 E:T.
For data set [3], the system named is WT1+ allo APC with restricting HLA allele loaded with WT1 peptide. Put plainly: Cr51 release assay, cytotoxic CTL response vs peptide loaded allogeneic APC sharing restricting HLA allele (HLA restriction). As to conditions: for Cytotoxic CTL response, % vs WT1+ allo APC with restricting HLA allele loaded with WT1 peptide: 50:1 E:T.

Where a SMILES comes first, the peptide text is derived from it.

The values below come from patent publication US10815274B2, “Immunogenic WT-1 peptides and methods of use thereof” (Memorial Sloan Kettering Cancer Center, priority 2012, dated 2020).

As to `C[C@H](NC(=O)[C@H](CCC(N)=O)NC(=O)[C@H](CO)NC(=O)CNC(=O)[C@@H](NC(=O)[C@H](CS)NC(=O)[C@H](CO)NC(=O)[C@H](CC(=O)O)NC(=O)[C@@H](N)[C@@H](C)O)[C@@H](C)O)C(=O)O` [SEQ ID NO: 168] (H-TDSCTGSQA-OH; N-terminus and C-terminus assumed), the “Cytotoxic CTL response, % vs WT1- autologous APC” value in the data set on WT1- autologous APC (HLA allele B3802) amounted to 0%; in the data set on WT1- autologous APC (HLA allele B4402), 1%. Moreover, the “Cytotoxic CTL response, % vs WT1 peptide loaded autologous APC” value in data set [1] (HLA allele B3802) is 88%; in data set [1] (HLA allele B4402) it was 36%. Moreover, the “Cytotoxic CTL response, % vs WT1- leukemia” value in the data set with WT1- leukemia (HLA allele B4402) is 1%. Besides, the “Cytotoxic CTL response, % vs WT1+ leukemia” value in the data set with WT1+ leukemia (HLA allele B4402) is reported as 56%. Moreover, the figures for the “Cytotoxic CTL response, % vs WT1- allo APC with restricting HLA allele” value in data set [2] (HLA allele B3802) and in data set [2] (HLA allele B4402) were 1% and 0%, respectively. For the same molecule, the “Cytotoxic CTL response, % vs WT1+ allo APC with restricting HLA allele loaded with WT1 peptide” value (from here on “Cytotoxic CTL response, % … with WT1 peptide”) is 53% in data set [3] (HLA allele B3802) and 88% in data set [3] (HLA allele B4402).
As to `CSCC[C@H](NC(=O)[C@@H]1CCCN1C(=O)[C@H](CC(=O)O)NC(=O)[C@H](CCC(=O)O)NC(=O)[C@H](Cc1c[nH]cn1)NC(=O)[C@H](CCCCN)NC(=O)[C@H](Cc1ccccc1)NC(=O)[C@H](CO)NC(=O)[C@@H](N)Cc1c[nH]cn1)C(=O)O` [SEQ ID NO: 165] (H-HSFKHEDPM-OH; N-terminus and C-terminus assumed), the “Cytotoxic CTL response, % vs WT1- autologous APC” value with WT1- autologous APC (HLA allele B3501) came out at 0%. Also, in data set [1] (HLA allele B3501), the “Cytotoxic CTL response, % vs WT1 peptide loaded autologous APC” value amounted to 50%. Further, in the data set with WT1- leukemia (HLA allele B3501), the “Cytotoxic CTL response, % vs WT1- leukemia” value turned out to be 5%. In addition, the “Cytotoxic CTL response, % vs WT1+ leukemia” value with WT1+ leukemia (HLA allele B3501) amounted to 45%. In data set [2] (HLA allele B3501), the “Cytotoxic CTL response, % vs WT1- allo APC with restricting HLA allele” value worked out at 3%. Moreover, the “Cytotoxic CTL response, % … with WT1 peptide” value in data set [3] (HLA allele B3501) came out at 63%. In addition, the “Cytotoxic activity against panel of allogeneic CAMs loaded with peptide, each sharing one HLA allele” value in data set [3] (peptide loaded autologous targets and targets expressing HLA-B3501, not targets sharing other alleles) is given as “selectively lysed”.
In the case of `CC(C)C[C@H](N)C(=O)N[C@@H](CC(=O)O)C(=O)N[C@@H](Cc1ccccc1)C(=O)N[C@@H](C)C(=O)N1CCC[C@H]1C(=O)N1CCC[C@H]1C(=O)NCC(=O)N[C@@H](C)C(=O)N[C@@H](CO)C(=O)O` [SEQ ID NO: 155] (H-LDFAPPGAS-OH; N-terminus and C-terminus assumed), in the data set with WT1- autologous APC (HLA allele A0201), the “Cytotoxic CTL response, % vs WT1- autologous APC” value stood at 0%. The “Cytotoxic CTL response, % vs WT1 peptide loaded autologous APC” value in data set [1] (HLA allele A0201) was found to be 73%. For the same molecule, in the data set on WT1- leukemia (HLA allele A0201), the “Cytotoxic CTL response, % vs WT1- leukemia” value is on record as 0%. The “Cytotoxic CTL response, % vs WT1+ leukemia” value in the data set on WT1+ leukemia (HLA allele A0201) came to 40%. In addition, the “Cytotoxic CTL response, % vs WT1- allo APC with restricting HLA allele” value in data set [2] (HLA allele A0201) came to 1%. Besides, the “Cytotoxicity of T-cells restricted by HLA A0201 against loaded targets” value in data set [3] (HLA A0201) is given as “able to lyse”. Moreover, in data set [3] (HLA allele A0201), the “Cytotoxic CTL response, % … with WT1 peptide” value stood at 62%.
As to `CSCC[C@H](NC(=O)[C@H](CCC(N)=O)NC(=O)[C@H](CC(N)=O)NC(=O)[C@@H](N)Cc1c[nH]c2ccccc12)C(=O)N[C@@H](CC(N)=O)C(=O)N[C@@H](CC(C)C)C(=O)NCC(=O)N[C@@H](C)C(=O)N[C@H](C(=O)N[C@@H](CC(C)C)C(=O)N[C@@H](CCCCN)C(=O)O)[C@@H](C)O` [SEQ ID NO: 173] (H-WNQMNLGATLK-OH; N-terminus and C-terminus assumed), in the data set with WT1- autologous APC (HLA allele DRB11104), the “Cytotoxic CTL response, % vs WT1- autologous APC” value was determined as 0%. For the same molecule, the “Cytotoxic CTL response, % vs WT1 peptide loaded autologous APC” value in data set [1] (HLA allele DRB11104) worked out at 8%. In the data set on WT1- leukemia (HLA allele DRB11104), the “Cytotoxic CTL response, % vs WT1- leukemia” value is listed as 0%. Further, the “Cytotoxic CTL response, % vs WT1+ leukemia” value in the data set on WT1+ leukemia (HLA allele DRB11104) is 0%. Further, in data set [2] (HLA allele DRB11104), the “Cytotoxic CTL response, % vs WT1- allo APC with restricting HLA allele” value came to 2%. The “Cytotoxic CTL response, % … with WT1 peptide” value in data set [3] (HLA allele DRB11104) was 1%.
